Source: PubChem BioAssay AID248 (DTP/NCI, 2004)
Several values for one entry are separate records, joined by “and”; a condition that tells them apart may be missing. Identical values can stand only once. Inconclusive results and toxic doses are left out. No stated cut-off is given here; in the data, active means T/C of 150% or more; inactive means T/C below 125%.

Test system: L1210 leukemia ip in BDF1 mice, survival T/C
Test: NCI In Vivo Anticancer Drug Screen. Data for tumor model L1210 Leukemia (intraperitoneal) in B6D2F1 (BDF1) mice
Settings: endpoint: mean survival time, higher = longer survival
How it was run: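 Transplantable tumor model; survival measured in treated vs vehicle control mice. Value = treated/control.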

[1] = dose: 100.0 mg/kg/injection, schedule: Q04DX003 (ip), vehicle: saline with Tween-80
[2] = dose: 200.0 mg/kg/injection, schedule: Q04DX003 (ip), vehicle: saline with Tween-80
[3] = dose: 400.0 mg/kg/injection, schedule: Q04DX003 (ip), vehicle: saline with Tween-80
[4] = dose: 100.0 mg/kg/injection, schedule: Q01DX009 (ip), vehicle: Klucel (hydroxypropylcellulose) (HPC)
[5] = dose: 100.0 mg/kg/injection, schedule: Q04DX002 (ip), vehicle: Klucel (hydroxypropylcellulose) (HPC)
[6] = dose: 100.0 mg/kg/injection, schedule: Q04DX003 (ip), vehicle: Klucel (hydroxypropylcellulose) (HPC)
[7] = dose: 200.0 mg/kg/injection, schedule: Q01DX009 (ip), vehicle: Klucel (hydroxypropylcellulose) (HPC)
[8] = dose: 200.0 mg/kg/injection, schedule: Q04DX002 (ip), vehicle: Klucel (hydroxypropylcellulose) (HPC)
[9] = dose: 200.0 mg/kg/injection, schedule: Q04DX003 (ip), vehicle: Klucel (hydroxypropylcellulose) (HPC)
[10] = dose: 400.0 mg/kg/injection, schedule: Q01DX009 (ip), vehicle: Klucel (hydroxypropylcellulose) (HPC)
[11] = dose: 400.0 mg/kg/injection, schedule: Q04DX002 (ip), vehicle: Klucel (hydroxypropylcellulose) (HPC)
[12] = dose: 400.0 mg/kg/injection, schedule: Q04DX003 (ip), vehicle: Klucel (hydroxypropylcellulose) (HPC)
[13] = dose: 100.0 mg/kg/injection, schedule: Q04DX002 (ip), vehicle: saline with Tween-80
[14] = dose: 200.0 mg/kg/injection, schedule: Q04DX002 (ip), vehicle: saline with Tween-80
[15] = dose: 400.0 mg/kg/injection, schedule: Q04DX002 (ip), vehicle: saline with Tween-80
[16] = dose: 100.0 mg/kg/injection, schedule: Q01DX001 (ip), vehicle: Klucel (hydroxypropylcellulose) (HPC)
[17] = dose: 200.0 mg/kg/injection, schedule: Q01DX001 (ip), vehicle: Klucel (hydroxypropylcellulose) (HPC)
[18] = dose: 400.0 mg/kg/injection, schedule: Q01DX001 (ip), vehicle: Klucel (hydroxypropylcellulose) (HPC)
[19] = dose: 25.0 mg/kg/injection, schedule: Q01DX009 (ip), vehicle: saline
[20] = dose: 50.0 mg/kg/injection, schedule: Q04DX003 (ip), vehicle: saline
[21] = dose: 100.0 mg/kg/injection, schedule: Q01DX009 (ip), vehicle: saline
[22] = dose: 100.0 mg/kg/injection, schedule: Q04DX003 (ip), vehicle: saline
[23] = dose: 200.0 mg/kg/injection, schedule: Q04DX003 (ip), vehicle: saline

Measured: T/C

CCOC(=O)/C=C1/Nc2cc(C)c(C)cc2NC1=O
inactive: [1] 91 % of control | [2] 89 % of control | [3] 94 % of control

O=C(NC(=S)Nc1ccc(Cl)c(Cl)c1)c1cccc([N+](=O)[O-])c1
inactive: [4] 95 % of control | [5] 95 % of control and 97 % of control | [6] 93 % of control | [7] 95 % of control | [8] 93 % of control and 97 % of control | [9] 95 % of control | [10] 92 % of control and 94 % of control | [11] 95 % of control and 102 % of control | [12] 93 % of control

CC(=O)c1ccc(NC(N)=S)cc1
inactive: dose: 5.0 mg/kg/injection, schedule: Q01DX009 (ip), vehicle: saline with Tween-80 88 % of control | dose: 10.0 mg/kg/injection, schedule: Q01DX009 (ip), vehicle: saline with Tween-80 98 % of control | dose: 20.0 mg/kg/injection, schedule: Q01DX009 (ip), vehicle: saline with Tween-80 103 % of control and 90 % of control | dose: 40.0 mg/kg/injection, schedule: Q01DX009 (ip), vehicle: saline with Tween-80 97 % of control and 104 % of control | dose: 80.0 mg/kg/injection, schedule: Q01DX009 (ip), vehicle: saline with Tween-80 91 % of control

NC(Cc1cnc(N=Nc2ccc(N=Nc3ncc(CC(N)C(=O)O)[nH]3)cc2)[nH]1)C(=O)O (stereo not given)
inactive: dose: 50.0 mg/kg/injection, schedule: Q01DX009 (ip), vehicle: Klucel (hydroxypropylcellulose) (HPC) 89 % of control | [4] 89 % of control

O=C(O)CCCN1C(=O)C2C3CCC(C3)C2C1=O (stereo not given)
inactive: [1] 103 % of control | [2] 98 % of control | [3] 107 % of control

S=c1nc[nH]c2c1ncn2C1CCCO1 (stereo not given)
active: dose: 75.0 mg/kg/injection, schedule: Q01DX Z (ip), vehicle: methylcellulose (MC) 159 % of control

CCCCN=Cc1ccc(Cl)cc1
inactive: [13] 90 % of control | [14] 87 % of control | [15] 100 % of control

O=[N+]([O-])C12CC3CC(CC(C3)C1)C2
inactive: dose: 100.0 mg/kg/injection, schedule: Q01DX001 (sc), vehicle: olive oil, sesame oil, peanut oil 114 % of control | dose: 200.0 mg/kg/injection, schedule: Q01DX001 (sc), vehicle: olive oil, sesame oil, peanut oil 108 % of control | dose: 400.0 mg/kg/injection, schedule: Q01DX001 (sc), vehicle: olive oil, sesame oil, peanut oil 93 % of control

CCC1(C)CC(=O)NC(=O)C1.[Tl]
inactive: dose: 3.12 mg/kg/injection, schedule: Q01DX009 (ip), vehicle: water 100 % of control | dose: 3.12 mg/kg/injection, schedule: Q04DX003 (ip), vehicle: water 97 % of control | dose: 6.25 mg/kg/injection, schedule: Q01DX009 (ip), vehicle: water 97 % of control | dose: 6.25 mg/kg/injection, schedule: Q04DX003 (ip), vehicle: water 100 % of control | dose: 12.5 mg/kg/injection, schedule: Q04DX003 (ip), vehicle: water 105 % of control

O=S(=O)(Nc1cc(Cl)c(NS(=O)(=O)c2ccccc2)c(S(=O)(=O)c2ccccc2)c1Cl)c1ccccc1
inactive: [16] 97 % of control | [6] 101 % of control | [17] 93 % of control | [9] 102 % of control | [18] 97 % of control | [12] 106 % of control

CCN1C(=O)CN=C(c2ccccn2)c2cc(Cl)ccc21
inactive: [16] 95 % of control | [17] 101 % of control | [18] 96 % of control

CCOc1ccc(NC(=O)N/N=C(\C)CC(C)C)cc1
inactive: [16] 93 % of control | [4] 99 % of control and 102 % of control | [5] 95 % of control and 89 % of control | [17] 89 % of control | [7] 96 % of control and 101 % of control | [8] 103 % of control and 110 % of control | [18] 91 % of control | [10] 95 % of control and 102 % of control | [11] 104 % of control and 92 % of control

Oc1cccnc1CN1CCCCC1
inactive: [19] 100 % of control | dose: 50.0 mg/kg/injection, schedule: Q01DX009 (ip), vehicle: saline 91 % of control | [20] 97 % of control | [21] 96 % of control | [22] 97 % of control

CCc1oc2cc([N+](=O)[O-])ccc2c1C#N
inactive: dose: 25.0 mg/kg/injection, schedule: Q04DX002 (ip), vehicle: Klucel (hydroxypropylcellulose) (HPC) 86 % of control | dose: 50.0 mg/kg/injection, schedule: Q04DX002 (ip), vehicle: Klucel (hydroxypropylcellulose) (HPC) 89 % of control | [4] 97 % of control | [5] 93 % of control | [7] 101 % of control | [10] 97 % of control

CN1CCC(OC(N)=O)CC1
inactive: [21] 99 % of control | [22] 103 % of control | dose: 200.0 mg/kg/injection, schedule: Q01DX009 (ip), vehicle: saline 104 % of control | [23] 103 % of control | dose: 400.0 mg/kg/injection, schedule: Q01DX009 (ip), vehicle: saline 96 % of control | dose: 400.0 mg/kg/injection, schedule: Q04DX003 (ip), vehicle: saline 101 % of control

CC(=O)c1ccc(O)c2ccccc12
inactive: [13] 92 % of control | [14] 95 % of control | [15] 100 % of control

CCOC(=O)C(Cl)C(C)(O)c1ccccc1 (stereo not given)
inactive: [13] 95 % of control | [14] 95 % of control

O=[N+]([O-])c1ccc(C2=Cc3cccn3-c3ccccc3S2(=O)=O)cc1
inactive: [6] 96 % of control | [9] 95 % of control | [12] 98 % of control

C/C(=N\NC(N)=S)C(C)(C)O
inactive: dose: 100.0 mg/kg/injection, schedule: Q01DX001 (ip), vehicle: carboxymethylcellulose (CMC) 110 % of control | dose: 200.0 mg/kg/injection, schedule: Q01DX001 (ip), vehicle: carboxymethylcellulose (CMC) 108 % of control | dose: 400.0 mg/kg/injection, schedule: Q01DX001 (ip), vehicle: carboxymethylcellulose (CMC) 104 % of control

O=C(Nc1ccc(NC(=O)Nc2ccc(C3=NCCN3)cc2)cc1)Nc1ccc(C2=NCCN2)cc1
active: dose: 303.0 mg/kg/injection, schedule: Q01DX Z (ip), vehicle: carboxymethylcellulose (CMC) 160 % of control
inactive: dose: 110.0 mg/kg/injection, schedule: Q01DX Z (ip), vehicle: carboxymethylcellulose (CMC) 100 % of control and 115 % of control | dose: 240.0 mg/kg/injection, schedule: Q01DX Z (oral), vehicle: carboxymethylcellulose (CMC) 98 % of control | dose: 375.0 mg/kg/injection, schedule: Q01DX Z (ip), vehicle: carboxymethylcellulose (CMC) 98 % of control | dose: 455.0 mg/kg/injection, schedule: Q01DX Z (ip), vehicle: carboxymethylcellulose (CMC) 93 % of control | dose: 480.0 mg/kg/injection, schedule: Q01DX Z (oral), vehicle: carboxymethylcellulose (CMC) 104 % of control | dose: 960.0 mg/kg/injection, schedule: Q01DX Z (oral), vehicle: carboxymethylcellulose (CMC) 107 % of control

Cc1cc(=O)[nH]c(NCCCCC(N)C(=O)O)n1 (stereo not given)
inactive: [20] 103 % of control | [22] 100 % of control | [23] 101 % of control

CC(=O)CCCSCCOC(C)=O
inactive: [4] 95 % of control | [7] 101 % of control | [10] 101 % of control

Cc1ccc(C(=O)Nc2c(N)ncnc2N)cc1[N+](=O)[O-]
inactive: dose: 75.0 mg/kg/injection, schedule: Q01DX001 (ip), vehicle: saline with Tween-80 101 % of control | dose: 150.0 mg/kg/injection, schedule: Q01DX001 (ip), vehicle: saline with Tween-80 98 % of control | dose: 300.0 mg/kg/injection, schedule: Q01DX001 (ip), vehicle: saline with Tween-80 102 % of control

C[N+](C)(CC(=O)Nc1ccc(Cl)c(Cl)c1)CC(=O)c1ccc(Cl)cc1
inactive: dose: 6.25 mg/kg/injection, schedule: Q01DX009 (ip), vehicle: saline 96 % of control | dose: 12.5 mg/kg/injection, schedule: Q01DX009 (ip), vehicle: saline 96 % of control | [19] 89 % of control | [1] 92 % of control
